Values of other authors in patent US10881492B2, “Oral care compositions and regimens” (The Procter & Gamble Company, priority 2014, dated 2021).

Conditions: concentration level where the cooling effect can be clearly recognized
For `CC(C)[C@@H]1CC[C@@H](C)C[C@@H]1O` [Example 1-neomenthol, 1-neomenthol], the cooling threshold is given as “about 3,000 ppb”.
In the case of `CC(C)[C@@H]1CC[C@@H](C)C[C@@H]1O` [d-neomenthol], the cooling threshold is given as “about 25,000 ppb”.
In the case of `CC(C)[C@@H]1CC[C@@H](C)C[C@H]1O` [L-menthol], the cooling threshold is listed as “about 800 ppb”.
